Data from ChEMBL document CHEMBL1154288, “The discovery and unique pharmacological profile of RO4938581 and RO4882224 as potent and selective GABAA alpha5 inverse agonists for the treatment of cognitive dysfunction” (Bioorg Med Chem Lett, 2009).
≈ marks a conversion by molar mass, not a printed value.

What was measured:
[1] = target: GABA A receptor alpha-5/beta-3/gamma-2 (Rattus norvegicus) (UniProt P18508+P19969+P63079); experiment: Inverse agonist activity at rat GABA alpha-5-beta-3-gamma-2 receptor expressed in HEK293 cells by electrophysiology assay relative to GABA; format: functional, cell-based
[2] = tested on: HEK293; experiment: Selectivity ratio of Ki for cloned human GABA alpha-3-beta-3-gamma-2 receptor expressed in HEK293 cells to Ki for cloned human GABA alpha-5-beta-3-gamma-2 receptor expressed in HEK293 cells; format: cell-based
[3] = tested on: HEK293; experiment: Selectivity ratio of Ki for cloned human GABA alpha-2-beta-3-gamma-2 receptor expressed in HEK293 cells to Ki for cloned human GABA alpha-5-beta-3-gamma-2 receptor expressed in HEK293 cells; format: cell-based
[4] = tested on: HEK293; experiment: Selectivity ratio of Ki for cloned human GABA alpha-1-beta-3-gamma-2 receptor expressed in HEK293 cells to Ki for cloned human GABA alpha-5-beta-3-gamma-2 receptor expressed in HEK293 cells; format: cell-based
[5] = target: T1, GABA-A receptor; alpha-5/beta-3/gamma-2 (Homo sapiens, UniProt P18507+P28472+P31644); experiment: Displacement of [3H]Flumazenil from cloned human GABA alpha-5-beta-3-gamma-2 receptor expressed in HEK293 cells; format: cell-based
T1 sequence (P18507 whole entry): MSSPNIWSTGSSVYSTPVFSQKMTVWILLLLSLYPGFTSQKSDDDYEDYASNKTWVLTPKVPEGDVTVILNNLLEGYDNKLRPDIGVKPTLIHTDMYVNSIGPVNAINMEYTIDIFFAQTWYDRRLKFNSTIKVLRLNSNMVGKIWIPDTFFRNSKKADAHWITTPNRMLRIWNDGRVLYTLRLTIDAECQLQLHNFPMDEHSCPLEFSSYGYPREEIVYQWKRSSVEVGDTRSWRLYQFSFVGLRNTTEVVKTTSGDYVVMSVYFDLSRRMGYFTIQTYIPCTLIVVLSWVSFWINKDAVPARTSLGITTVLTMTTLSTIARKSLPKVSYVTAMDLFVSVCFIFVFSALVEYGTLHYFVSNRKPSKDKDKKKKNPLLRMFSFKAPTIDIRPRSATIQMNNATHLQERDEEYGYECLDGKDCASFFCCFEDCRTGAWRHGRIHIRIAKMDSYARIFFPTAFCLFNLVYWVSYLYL
T1 sequence (P28472 whole entry): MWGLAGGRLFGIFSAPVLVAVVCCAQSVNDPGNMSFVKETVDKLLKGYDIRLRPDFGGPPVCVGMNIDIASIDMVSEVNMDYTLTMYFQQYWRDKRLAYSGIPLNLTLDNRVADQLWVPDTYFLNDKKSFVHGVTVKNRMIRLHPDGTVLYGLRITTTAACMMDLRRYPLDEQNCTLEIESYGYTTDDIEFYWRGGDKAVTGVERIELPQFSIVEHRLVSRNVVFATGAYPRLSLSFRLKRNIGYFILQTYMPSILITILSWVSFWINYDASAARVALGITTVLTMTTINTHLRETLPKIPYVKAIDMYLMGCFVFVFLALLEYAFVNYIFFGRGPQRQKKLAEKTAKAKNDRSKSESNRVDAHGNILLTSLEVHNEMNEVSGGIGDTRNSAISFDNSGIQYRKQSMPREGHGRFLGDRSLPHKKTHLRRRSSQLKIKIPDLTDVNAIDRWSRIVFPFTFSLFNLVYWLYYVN
T1 sequence (P31644 whole entry): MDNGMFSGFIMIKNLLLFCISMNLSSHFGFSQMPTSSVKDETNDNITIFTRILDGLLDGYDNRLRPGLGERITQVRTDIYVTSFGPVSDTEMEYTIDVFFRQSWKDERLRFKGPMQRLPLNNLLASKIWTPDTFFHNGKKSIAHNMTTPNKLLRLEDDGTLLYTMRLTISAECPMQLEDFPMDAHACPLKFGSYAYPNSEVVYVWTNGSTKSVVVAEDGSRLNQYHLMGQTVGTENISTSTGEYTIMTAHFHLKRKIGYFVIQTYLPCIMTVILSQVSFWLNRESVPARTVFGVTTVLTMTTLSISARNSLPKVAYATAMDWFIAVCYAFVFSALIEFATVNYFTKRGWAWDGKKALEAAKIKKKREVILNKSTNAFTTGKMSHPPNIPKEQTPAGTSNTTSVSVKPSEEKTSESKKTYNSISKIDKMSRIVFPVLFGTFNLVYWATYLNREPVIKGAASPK

[6] = target: GABA-A receptor; alpha-5/beta-3/gamma-2 (Homo sapiens) (UniProt P18507+P28472+P31644); experiment: Inverse agonist activity at human GABA alpha-5-beta-3-gamma-2 receptor expressed in Xenopus laevis oocyts by electrophysiology assay relative to GABA; format: functional
[7] = Selectivity ratio of Ki for cloned human GABA alpha-2-beta-3-gamma-2 receptor expressed in insect SF9 cells to Ki for cloned human GABA alpha-5-beta-3-gamma-2 receptor expressed in insect SF9 cells
[8] = Selectivity ratio of Ki for cloned human GABA alpha-1-beta-3-gamma-2 receptor expressed in insect SF9 cells to Ki for cloned human GABA alpha-5-beta-3-gamma-2 receptor expressed in insect SF9 cells
[9] = Selectivity ratio of Ki for cloned human GABA alpha-3-beta-3-gamma-2 receptor expressed in insect SF9 cells to Ki for cloned human GABA alpha-5-beta-3-gamma-2 receptor expressed in insect SF9 cells
[10] = target: GABA-A receptor; alpha-1/beta-2/gamma-2 (Rattus norvegicus) (UniProt P18508+P62813+P63138); experiment: Inverse agonist activity at rat GABA alpha-1-beta-3-gamma-2 receptor expressed in HEK293 cells by electrophysiology assay relative to GABA; format: functional, cell-based
[11] = Volume of distribution at steady state in rat; format: ADME, organism-based; details: in vivo, read-out: Vdss
[12] = Half life in rat; format: ADME, organism-based; details: in vivo
[13] = Oral bioavailability in rat; format: ADME, organism-based; details: in vivo
[14] = Permeability by PAMPA; format: ADME; details: read-out: permeability
[15] = Clearance in rat; format: ADME, organism-based; details: in vivo
[16] = Lipophilicity, log D at pH 7.4; format: physicochemical; details: buffer
[17] = Solubility by lypophlisation solubility assay; format: physicochemical

| Compound | Efficacy [1] [%] | Ratio Ki [2] | Ratio Ki [3] | Ratio Ki [4] | Ki [5] [nM] | Efficacy [6] [%] | further results |
| --- | --- | --- | --- | --- | --- | --- | --- |
| CCS(=O)(=O)c1ncn2c1Cn1ncnc1-c1cc(Cl)ccc1-2 | -23 | 4 | > 15 | 4 | 215 | – | – |
| CS(=O)(=O)Nc1ccc2c(c1)-c1ncnn1Cc1c(Cl)ncn1-2 | – | 5 | 5 | 7 | 54 | -36 | – |
| Cc1ncn2c1Cn1ncnc1-c1cc(I)ccc1-2 | – | 29 | 60 | 42 | 4.4 | -57 | – |
| Cc1ncn2c1Cn1ncnc1-c1cc(C(F)F)ccc1-2 | – | 30 | 62 | 29 | 2.2 | -45 | – |
| Cc1ncn2c1Cn1ncnc1-c1c(F)cccc1-2 | – | 6 | 13 | 5 | 1 | -42 | – |
| Cc1ncn2c1Cn1ncnc1-c1cccc(F)c1-2 | – | 5 | 12 | 12 | 64 | -50 | – |
| Cc1ncn2c1Cn1ncnc1-c1cc(OC(F)F)ccc1-2 | – | 33 | 53 | 58 | 1.8 | -43 | – |
| Clc1ncn2c1Cn1ncnc1-c1cc(-c3ccccc3)ccc1-2 | 8 | 8 | 5 | 4 | 6.3 | – | – |
| c1ccc2c(c1)-c1ncnn1Cc1cncn1-2 | -37 | – | – | – | – | – | Ratio Ki [7]: 0.05; Ratio Ki [8]: 15; Ratio Ki [9]: 0.06 |
| Cc1ncn2c1Cn1ncnc1-c1cc(F)ccc1-2 | -38 | 4 | 3 | 6 | 3 | – | – |
| Clc1ccc2c(c1)-c1ncnn1Cc1c(C3CC3)ncn1-2 | -21 | 5 | 7 | 6 | 9.4 | – | – |
| CC(=O)Nc1ccc2c(c1)-c1ncnn1Cc1c(Cl)ncn1-2 | -34 | 10 | 19 | 14 | 2.9 | – | – |
| Clc1ncn2c1Cn1ncnc1-c1cc(-n3ccnc3)ccc1-2 | -7 | 1 | 2 | 1 | 13 | – | – |
| Cc1ncn2c1Cn1ncnc1-c1c(Cl)cccc1-2 | – | 1 | 2 | 0.6 | 1.2 | -45 | – |
| Cc1ncn2c1Cn1ncnc1-c1cc(Br)ccc1-2 | -42 | 21 | 30 | 22 | 6.2 | – | Efficacy [10]: -9%; Vd [11]: 0.4 L/kg; half-life [12]: 7.7 h; bioavailability [13]: 80%; Papp [14]: 7.6 ×10⁻⁶ cm/s; clearance [15]: 0.6 mL/min/kg; logD [16]: 1.6; solubility [17]: 78 µg/mL (≈ 247 µM) |
| Cc1ccc2c(c1)-c1ncnn1Cc1c(Cl)ncn1-2 | -37 | 12 | 23 | 11 | 1.8 | – | – |
| COc1ccc2c(c1)-c1ncnn1Cc1c(C)ncn1-2 | – | 18 | 31 | 11 | 7.7 | -45 | – |
